Measured values reported in PMC11880180, “Theranostic Near-Infrared Monoamine Oxidase Inhibitor (NMI) Protein Binding Interactions with MAOA and Albumin” (Pharmaceutical Research, 2025).

Target: T1, MAOA (monoamine oxidase A) (Homo sapiens, UniProt P21397)
T1 construct: recombinant human MAOA (M7316-1VL)
T1 sequence (P21397 1-527): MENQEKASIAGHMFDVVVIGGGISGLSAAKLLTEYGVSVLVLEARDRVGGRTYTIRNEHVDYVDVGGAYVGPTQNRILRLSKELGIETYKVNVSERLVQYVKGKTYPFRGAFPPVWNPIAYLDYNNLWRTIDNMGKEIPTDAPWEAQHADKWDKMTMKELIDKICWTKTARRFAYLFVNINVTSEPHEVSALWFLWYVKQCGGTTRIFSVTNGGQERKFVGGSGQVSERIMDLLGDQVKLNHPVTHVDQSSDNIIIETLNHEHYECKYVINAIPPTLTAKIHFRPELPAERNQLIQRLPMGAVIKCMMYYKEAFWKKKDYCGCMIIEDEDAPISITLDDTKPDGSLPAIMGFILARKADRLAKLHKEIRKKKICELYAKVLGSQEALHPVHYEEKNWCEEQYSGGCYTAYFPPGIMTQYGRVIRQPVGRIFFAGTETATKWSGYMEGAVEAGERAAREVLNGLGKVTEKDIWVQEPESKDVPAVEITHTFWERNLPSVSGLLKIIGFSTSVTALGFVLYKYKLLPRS
Assay: MAO-Glo activity assay with recombinant MAOA (IC50 […] in PEG, […] in PBS); fluorescent SDS-PAGE band of pure protein
Format: biochemical

## C#CCN(CCCNC(=O)CCCCC[N+]1=C(/C=C/C2=C(Cl)C(=C/C=C3\N(CCCCCC(=O)[O-])c4ccccc4C3(C)C)/CCC2)C(C)(C)c2ccccc21)CCCOc1ccc(Cl)cc1Cl [NMI]
  IC50: 1600 nM
